Assay results reported in patent US20090221600A1, “PYRIDO-PYRIDIMIDINE DERIVATIVES USEFUL AS ANTIINFLAMMATORY AGENTS” (priority 2005, published 2009).

Question: Which melting point does the source give for `Cc1ccccc1-c1cc2cnc(NC3CCN(Cc4ccccc4)CC3)nc2n(C2CCOCC2)c1=O` [Compound No. 9, 2-[(1-Benzyl-piperidin-4-yl)amino]-6-(2-methyl-phenyl)-8-(tetrahydro-2H-pyran-4-yl)pyrido[2,3-d]pyrimidin-7(8H)-one] here?
Answer: 201.8 to 203.2 °C
